Common to all, as to type: cell-based
Test [1] deals with T1, hTLR8 (human Toll-like receptor 8) (Homo sapiens, UniProt Q9NR97).
T1 construct: host or cells: HEK-Blue hTLR8 (HEK293-derived reporter cells)
T1 sequence (Q9NR97 27-1041): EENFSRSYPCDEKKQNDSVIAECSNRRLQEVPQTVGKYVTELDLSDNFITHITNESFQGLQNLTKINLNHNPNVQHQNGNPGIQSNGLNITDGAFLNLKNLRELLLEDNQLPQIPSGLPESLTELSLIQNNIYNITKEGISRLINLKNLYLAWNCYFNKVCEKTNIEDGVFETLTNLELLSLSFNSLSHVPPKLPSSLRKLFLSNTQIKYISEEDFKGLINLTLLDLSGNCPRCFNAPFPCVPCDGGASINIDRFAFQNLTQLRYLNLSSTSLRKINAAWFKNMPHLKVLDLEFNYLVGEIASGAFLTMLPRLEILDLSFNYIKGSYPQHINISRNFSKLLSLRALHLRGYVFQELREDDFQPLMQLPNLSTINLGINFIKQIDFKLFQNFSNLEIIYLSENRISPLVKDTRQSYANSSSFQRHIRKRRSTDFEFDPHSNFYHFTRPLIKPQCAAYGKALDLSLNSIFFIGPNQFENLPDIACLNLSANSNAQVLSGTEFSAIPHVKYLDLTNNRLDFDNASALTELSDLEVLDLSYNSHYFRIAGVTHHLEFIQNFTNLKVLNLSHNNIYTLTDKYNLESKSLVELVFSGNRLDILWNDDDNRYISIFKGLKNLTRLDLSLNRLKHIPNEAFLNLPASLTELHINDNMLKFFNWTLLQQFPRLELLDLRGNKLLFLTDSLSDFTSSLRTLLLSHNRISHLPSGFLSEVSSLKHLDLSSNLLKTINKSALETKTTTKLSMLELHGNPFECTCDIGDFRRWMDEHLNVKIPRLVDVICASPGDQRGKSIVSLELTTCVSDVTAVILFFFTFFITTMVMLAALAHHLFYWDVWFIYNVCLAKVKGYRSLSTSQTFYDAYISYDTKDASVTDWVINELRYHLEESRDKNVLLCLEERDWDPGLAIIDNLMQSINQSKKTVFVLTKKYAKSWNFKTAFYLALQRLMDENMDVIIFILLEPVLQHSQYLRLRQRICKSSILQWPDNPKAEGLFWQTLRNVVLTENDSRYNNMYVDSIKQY
Description: hTLR8 cell assay (HEK-Blue hTLR8 reporter cells). The following applies: 24 hours, OD 650 nm. The method, boiled down:
(§1)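 HEK-Blue reporter cells in HEK-Blue Detection medium (50000 cells/mL) were exposed to test compounds for 24 hours at 37° C, 5% CO2. Agonism was read from supernatant incubated 1 hour at 37° C with QUANTI-Blue, measured as optical density at 650 nm.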

Test [2] has as its system human PBMC (human peripheral blood mononuclear cells). The test can be described thus: PBMC screening assay: induction of TNF-α production. The settings on record: human PBMC, 24 hours, TNF-α by ELISA; class symbols; read-out: EC50 (μM) TNF-α (hPBMC). Here is the method: The payload compounds of Formula (II′) were assayed to evaluate the induction of TNF-α production in human PBMC (human peripheral blood mononuclear cells).
Human peripheral blood mononuclear cells (PBMC) were obtained from Allcells. […] PBMC were incubated for 24 hours at 37° C. in a 5% CO2 humidified incubator. The following day PBMC plates were centrifuged at 500×g for 5 minutes and the growth media was removed. 200 μL of compound prepared in growth media at a series of diluted concentrations ranging from 2.54 nM to 50 μM were added to PBMC in duplicate and incubated for 24 hours at 37° C. in a 5% CO2 incubator. Prior to supernatant harvest, cells were spun at 500×g for 5 minutes to remove cell debris. TNF-α activity was assessed in the supernatant by ELISA (Elabscience) per the manufacturer's instructions. Optical density at 450 nm (ELISA) was analyzed using a plate reader.
A general note: In an ELISA, binding on a coated surface is turned into a signal by an enzyme label.

In test [3] the target is T2, hTLR7 (human Toll-like receptor 7) (Homo sapiens, UniProt Q9NYK1).
T2 construct: host or cells: HEK-Blue hTLR7 (HEK293-derived reporter cells)
T2 sequence (Q9NYK1 27-1049): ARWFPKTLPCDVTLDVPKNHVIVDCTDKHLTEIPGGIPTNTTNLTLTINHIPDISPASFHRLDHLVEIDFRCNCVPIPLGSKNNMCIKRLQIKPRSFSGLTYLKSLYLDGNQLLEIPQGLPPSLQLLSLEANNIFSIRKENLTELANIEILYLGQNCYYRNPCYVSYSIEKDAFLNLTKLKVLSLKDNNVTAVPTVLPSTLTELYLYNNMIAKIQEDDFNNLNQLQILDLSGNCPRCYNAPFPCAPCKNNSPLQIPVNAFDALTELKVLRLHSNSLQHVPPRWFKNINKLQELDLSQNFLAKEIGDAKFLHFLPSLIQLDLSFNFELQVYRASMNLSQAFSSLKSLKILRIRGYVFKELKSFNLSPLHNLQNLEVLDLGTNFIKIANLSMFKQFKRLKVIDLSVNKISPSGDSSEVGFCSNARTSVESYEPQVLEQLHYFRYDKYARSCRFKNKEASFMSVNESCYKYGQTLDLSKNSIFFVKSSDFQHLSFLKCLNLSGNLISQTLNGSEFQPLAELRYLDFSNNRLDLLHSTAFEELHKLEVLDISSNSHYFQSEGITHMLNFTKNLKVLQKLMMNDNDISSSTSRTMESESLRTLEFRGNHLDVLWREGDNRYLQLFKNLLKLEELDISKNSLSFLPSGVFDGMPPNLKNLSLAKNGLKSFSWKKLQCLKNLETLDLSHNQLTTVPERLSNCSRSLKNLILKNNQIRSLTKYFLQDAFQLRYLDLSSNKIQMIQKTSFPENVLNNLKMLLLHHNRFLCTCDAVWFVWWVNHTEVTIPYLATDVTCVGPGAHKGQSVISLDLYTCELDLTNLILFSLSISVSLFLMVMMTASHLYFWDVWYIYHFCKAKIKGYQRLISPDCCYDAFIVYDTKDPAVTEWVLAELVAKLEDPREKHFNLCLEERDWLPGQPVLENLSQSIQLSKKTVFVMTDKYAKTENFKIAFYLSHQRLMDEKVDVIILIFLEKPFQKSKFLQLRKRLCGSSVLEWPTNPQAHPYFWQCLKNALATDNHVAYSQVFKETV
Description: hTLR7 cell assay (HEK-Blue hTLR7 reporter cells). The following applies: 24 hours, OD 650 nm. The method, boiled down: as §1

Some results are limits rather than exact numbers.

The term EC50 denotes the concentration at which the effect is half-maximal.

`CCCCc1nc2c(N)nc3cc(Cc4ccccc4CN)ccc3c2n1CC(C)(C)O` [Compound 71, 1-(4-amino-7-(2-(aminomethyl)benzyl)-2-butyl-1H-imidazo[4,5-c]quinolin-1-yl)-2-methylpropan-2-ol]: the figures for the EC50 in test [1], in test [2] and in test [3] were < 5 µM, > 0.64 µM and 1 to 10 µM, respectively.
Consider `CCOCc1nc2c(N)nc3cc(Cc4cc(CN)ccc4F)ccc3c2n1CC(C)(C)O` [Compound 148, 1-(4-amino-7-(5-(aminomethyl)-2-fluorobenzyl)-2-(ethoxymethyl)-1H-imidazo[4,5-c]quinolin-1-yl)-2-methylpropan-2-ol], for which the EC50 was < 5 µM in test [1], < 0.64 µM in test [2] and < 1 µM in test [3].
The corresponding values for `CCOCc1nc2c(N)nc3cc(Cc4cccc(C(=O)NCCN)c4)ccc3c2n1CC(C)(C)O` [Compound 151, 3-((4-amino-2-(ethoxymethyl)-1-(2-hydroxy-2-methylpropyl)-1H-imidazo[4,5-c]quinolin-7-yl)methyl)-N-(2-aminoethyl)benzamide] are < 5 µM, < 0.64 µM and 1 to 10 µM.
The corresponding values for `CC(C)(O)Cn1c(CC2CC2)nc2c(N)nc3cc(Cc4cccc(CN)c4)ccc3c21` [Compound 54, 1-(4-amino-7-(3-(aminomethyl)benzyl)-2-(cyclopropylmethyl)-1H-imidazo[4,5-c]quinolin-1-yl)-2-methylpropan-2-ol] are < 5 µM, > 0.64 µM and < 1 µM.
Regarding `CCOCc1nc2c(N)nc3cc(Cc4cccc(CNC(=O)CN)c4)ccc3c2n1CC(C)(C)O` [Compound 150, 2-amino-N-(3-((4-amino-2-(ethoxymethyl)-1-(2-hydroxy-2-methylpropyl)-1H-imidazo[4,5-c]quinolin-7-yl)methyl)benzyl)acetamide], the concentration for a half-maximal effect (EC50) in test [1] is < 5 µM; in test [2] it was < 0.64 µM; in test [3], 1 to 10 µM.
The corresponding values for `CCCCc1nc2c(N)nc3cc(Cc4cccc(N5CCNCC5)c4)ccc3c2n1CC(C)(C)O` [Compound 63, 1-(4-amino-2-butyl-7-(3-(piperazin-1-yl)benzyl)-1H-imidazo[4,5-c]quinolin-1-yl)-2-methylpropan-2-ol] are < 5 µM, < 0.64 µM and < 1 µM.
Turning to `CCCCc1nc2c(N)nc3cc(Cc4ccc(F)c(CN)c4)ccc3c2n1CC(C)(C)O` [Compound 68, 1-(4-amino-7-(3-(aminomethyl)-4-fluorobenzyl)-2-butyl-1H-imidazo[4,5-c]quinolin-1-yl)-2-methylpropan-2-ol], the EC50 is < 5 µM in test [1], < 0.64 µM in test [2] and < 1 µM in test [3].
`CCCC(C)c1nc2c(N)nc3cc(Cc4ccccc4)ccc3c2n1CC(C)(C)OCCCN` (stereo not drawn) [Compound 32, 1-(2-(3-aminopropoxy)-2-methylpropyl)-7-benzyl-2-(pentan-2-yl)-1H-imidazo[4,5-c]quinolin-4-amine]: the EC50 in test [1] is < 5 µM; in test [2], > 0.64 µM; in test [3] it was 1 to 10 µM.
The corresponding values for `CCCCc1nc2c(N)nc3cc(Cc4ccc(CCCN)cc4)ccc3c2n1CC(C)(C)O` [Compound 15, 1-(4-amino-7-(4-(3-aminopropyl)benzyl)-2-butyl-1H-imidazo[4,5-c]quinolin-1-yl)-2-methylpropan-2-ol] are < 5 µM, < 0.64 µM and 1 to 10 µM.
For `CCCCc1nc2c(N)nc3cc(Cc4cc(CN)ccc4F)ccc3c2n1CC(C)(C)O` [Compound 67, 1-(4-amino-7-(5-(aminomethyl)-2-fluorobenzyl)-2-butyl-1H-imidazo[4,5-c]quinolin-1-yl)-2-methylpropan-2-ol], in that order: < 5 µM, < 0.64 µM and < 1 µM.
For `CCCCc1nc2c(N)nc3cc(Cc4cccc(NC(=O)CN)c4)ccc3c2n1CC(C)(C)O` [Compound 65, 2-amino-N-(3-((4-amino-2-butyl-1-(2-hydroxy-2-methylpropyl)-1H-imidazo[4,5-c]quinolin-7-yl)methyl)phenyl)acetamide], the EC50 in test [1] is < 5 µM; in test [2], < 0.64 µM; in test [3], 1 to 10 µM.
Regarding `CCCC(F)(F)c1nc2c(N)nc3cc(Cc4cccc(CN)c4)ccc3c2n1CC(C)(C)O` [Compound 52, 1-(4-amino-7-(3-(aminomethyl)benzyl)-2-(1,1-difluorobutyl)-1H-imidazo[4,5-c]quinolin-1-yl)-2-methylpropan-2-ol], the EC50 in test [1] was < 5 µM; in test [2], > 0.64 µM; in test [3] it was 1 to 10 µM.
The corresponding values for `CCOCc1nc2c(N)nc3cc(Cc4ccc(CN)s4)ccc3c2n1CC(C)(C)O` [Compound 147, 1-(4-amino-7-((5-(aminomethyl)thiophen-2-yl)methyl)-2-(ethoxymethyl)-1H-imidazo[4,5-c]quinolin-1-yl)-2-methylpropan-2-ol] are < 5 µM, < 0.64 µM and < 1 µM.
For `CCCCc1nc2c(N)nc3cc(Cc4cccc(CNC)c4)ccc3c2n1CC(C)(C)O` [Compound 20, 1-(4-amino-2-butyl-7-(3-((methylamino)methyl)benzyl)-1H-imidazo[4,5-c]quinolin-1-yl)-2-methylpropan-2-ol], in that order: < 5 µM, < 0.64 µM and < 1 µM.
`CCCCc1nc2c(N)nc3cc(Cc4ccc5c(c4)C(N)CC5)ccc3c2n1CC(C)(C)O` (stereo not drawn) [Compound 61, 1-(4-amino-7-((3-amino-2,3-dihydro-1H-inden-5-yl)methyl)-2-butyl-1H-imidazo[4,5-c]quinolin-1-yl)-2-methylpropan-2-ol]: the EC50 in test [1] was < 5 µM; in test [2] it was < 0.64 µM; in test [3], < 1 µM.

For the origin of these results see US20250325687A1, “CONJUGATE COMPRISING TOLL-LIKE RECEPTOR AGONIST” (MABSOFT THERAPEUTICS (SHANGHAI) CO., LTD., priority 2022, published 2025).
